Experimental data published in patent US20230295197A1, “STAT5 and STAT6 Degraders and Uses Thereof” (REGENTS OF THE UNIVERSITY OF MICHICAN, priority 2022, published 2023).
Where two headings read alike, the source gives them in different places.

Target: T1, STAT6 (Homo sapiens, UniProt P42226)
T1 construct: endogenous in cells; host or cells: MOLM-16, KU-812, SKNO1, MB231, L1236
T1 sequence (P42226 1-847): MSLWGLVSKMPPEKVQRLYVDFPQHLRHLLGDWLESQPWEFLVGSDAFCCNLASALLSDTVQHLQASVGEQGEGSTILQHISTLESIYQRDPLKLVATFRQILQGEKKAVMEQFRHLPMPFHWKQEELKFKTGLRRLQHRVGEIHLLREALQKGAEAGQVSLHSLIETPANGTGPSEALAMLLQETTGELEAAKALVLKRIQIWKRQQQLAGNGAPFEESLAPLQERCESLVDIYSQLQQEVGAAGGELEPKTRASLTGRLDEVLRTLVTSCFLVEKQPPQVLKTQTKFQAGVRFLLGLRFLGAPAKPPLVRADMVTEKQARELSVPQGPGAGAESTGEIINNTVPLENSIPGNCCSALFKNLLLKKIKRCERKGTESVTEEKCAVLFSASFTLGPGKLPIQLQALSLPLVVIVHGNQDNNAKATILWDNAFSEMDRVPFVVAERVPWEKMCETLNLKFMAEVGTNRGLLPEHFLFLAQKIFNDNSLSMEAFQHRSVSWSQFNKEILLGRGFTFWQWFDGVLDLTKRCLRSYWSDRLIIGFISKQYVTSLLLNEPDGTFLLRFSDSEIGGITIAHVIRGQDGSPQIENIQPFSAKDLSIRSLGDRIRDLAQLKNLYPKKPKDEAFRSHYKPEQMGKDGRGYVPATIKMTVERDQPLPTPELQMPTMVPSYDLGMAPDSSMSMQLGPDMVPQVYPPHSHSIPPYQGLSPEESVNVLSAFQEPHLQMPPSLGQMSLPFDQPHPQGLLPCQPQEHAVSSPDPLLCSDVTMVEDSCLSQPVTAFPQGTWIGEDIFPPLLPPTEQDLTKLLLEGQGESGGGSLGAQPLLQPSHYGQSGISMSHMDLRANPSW
Experiment: Immunoblotting (Western blot) analysis of STAT6 degradation efficiency of degraders in treated cells
Type: cell-based
Procedure: Evaluation of the degradation efficiency of degraders may be accomplished by immunoblotting analysis. The representative general protocol is the following:
Cells are maintained in the appropriate culture medium with 10% FBS at 37° C. and an atmosphere of 5% CO2. Cell lines are used within three months of thawing fresh vials. Cells are lysed 1× Cell Lysis Buffer (Cell Signaling Technology, #9803), resolved by SDS-PAGE NuPAGE gel (Thermo Fisher Scientific), and transferred to a PVDF membrane (Millipore). Membranes are blocked using Odyssey TBS Blocker Buffer (LI-COR). IRDye 680RD and 800CW Dye-labeled secondary antibodies (LI-COR) are used. The washed membranes are scanned using Odyssey CLx imager (LI-COR). The intensity of Western blot signaling is quantitated using the Odyssey software. Primary antibodies used are: STAT5 Rabbit mAb (Cell Signaling Technology, #94205), STAT6 Rabbit mAb (Cell Signaling Technology, #5397) and GAPDH mouse monoclonal antibody (Santa Cruz Biotechnology, sc-47724).
To evaluate the degradation efficiency of degraders, immunoblotting analysis was performed. The general protocol is the following.
About 1 million cells for each data point were treated with compounds at indicated concentrations and durations. Untreated and treated cells in cell culture medium were transferred into tubes, followed by centrifugation at 3,000 rpm and 4° C. for 6 min Supernatants were removed from tubes and radioimmunoprecipitation assay (RIPA) lysis buffer supplemented with 1% protease inhibitor cocktail (Fisher Scientific cat. PI87786) and phosphatase inhibitor (Roche cat. 04906837001) were added to tubes containing the remaining cell pellets. The tubes were then left on ice for 30 min and placed in a −80° C. freezer. Subsequently they were thawed in 37° C. water, then centrifuged at 14,000 rpm for 15 min and the cell lysates transferred to new tubes. The concentration of total proteins in each tube was calculated using the Pierce BCA protein Assay kit (cat. 23225). Based on the calculated protein concentration, cell lysates containing approximately the same amount of proteins were transferred to new tubes, then distilled water and 4× Protein Sample Loading Buffer for Western Blots (LI-COR cat. 928-40004) supplemented with 20% of mercaptoethanol (Sigma Aldrich cat. M6250) were added on ice. The cell lysates were then reduced and denatured at 95° C. for 5 min. From the tubes containing cell lysates an equal amount of protein samples (20-40 μg) was loaded into precast 8%, 10%, 4%-12%, or 4%-20% Tris-glycine gels (Novex) filled with Tris-glycine SDS running buffer. After the proteins were resolved, they were transferred onto Immobile-FL PVDF Membrane (Millipore Sigma cat. IPFL00010), using Mini Trans-Blot Electrophoretic Transfer Cell (Bio-Rad 1703930). The membranes were blocked with Intercept Blocking Buffer (LI-COR cat. 927-70001) in LI-COR Western Blot boxes for 1 h at rt. The membranes were washed with 1× Tris-buffered saline-Tween-20 (TBST, 1× solution was made from 20×TBST solution, ThermoFisher Scientific cat. 28360) for 5 min 4 times. The membranes were incubated overnight at 4° C. in Intercept Blocking Buffer supplemented with primary antibodies (normally antibody:buffer 1:1000) and Tween-20. The membranes were washed with TBST for 5 min 4 times and were incubated with Intercept Blocking Buffer supplemented with IRDye 800CE Secondary Antibodies, IRDye 680RD Secondary Antibodies (LI-COR biosciences), Tween-20, and 10% SDS solution, for 1 h at rt. The membranes were then washed with TBST for 5 min 4 times and rinsed with deionized water before drying and scanning with Odyssey Dlx Amazing System (LI-COR). The immunoblots were finally quantified by the software.

[1] = MOLM-16 cells, class symbols, read-out: DC50 S6 MOLM-16
[2] = MOLM-16 cells, numeric bound, read-out: DC50 S6 MOLM-16
[3] = L1236 cells, read-out: DC50 S6 L1236

Compound | DC50 [1] | DC50 [2] | DC50 [3]
CC(C)(C)[C@H](NC(=O)c1cc2cc(C(F)(F)P(=O)(O)O)ccc2s1)C(=O)N1Cc2cc(OCC(=O)NCCCC#Cc3cccc4c3C(=O)N(C3CCC(=O)NC3=O)C4=O)ccc2C[C@H]1C(=O)N1CCC[C@H](c2ccccc2)C1 (stereo partly drawn) [Compound 553, ((2-(((2S)-1-((3S)-7-(2-((5-(2-(2,6-dioxopiperidin-3-yl)-1,3-dioxoisoindolin-4-yl)pent-4-yn-1-yl)amino)-2-oxoethoxy)-3-((R)-3-phenylpiperidine-1-carbonyl)-3,4-dihydroisoquinolin-2(1H)-yl)-3,3-dimethyl-1-oxobutan-2-yl)carbamoyl)benzo[b]thiophen-5-yl)difluoromethyl)phosphonic acid] | > 10 µM | – | –
CC(C)(C)[C@H](NC(=O)c1cc2cc(C(F)(F)P(=O)(O)O)ccc2s1)C(=O)N1C[C@@H](OCCCCCNc2cccc3c2CN(C2CCC(=O)NC2=O)C3=O)C[C@H]1C(=O)N1CCO[C@H](c2ccccc2)C1 (stereo partly drawn) [Compound 598, ((2-(((2S)-1-((2S,4S)-4-((5-((2-(2,6-dioxopiperidin-3-yl)-1-oxoisoindolin-4-yl)amino)pentyl)oxy)-2-((R)-2-phenylmorpholine-4-carbonyl)pyrrolidin-1-yl)-3,3-dimethyl-1-oxobutan-2-yl)carbamoyl)benzo[b]thiophen-5-yl)difluoromethyl)phosphonic acid] | – | > 0.3 µM | –
CC(C)(C)[C@H](NC(=O)c1cc2cc(C(F)(F)P(=O)(O)O)ccc2s1)C(=O)N1C[C@H](OCCCCCC#Cc2ccc3c(c2)CN(C2CCC(=O)NC2=O)C3=O)C[C@H]1C(=O)N1CCC[C@H](c2ccccc2)C1 (stereo partly drawn) [Compound 603, ((2-(((2S)-1-((2S,4R)-4-((7-(2-(2,6-dioxopiperidin-3-yl)-1-oxoisoindolin-5-yl)hept-6-yn-1-yl)oxy)-2-((R)-3-phenylpiperidine-1-carbonyl)pyrrolidin-1-yl)-3,3-dimethyl-1-oxobutan-2-yl)carbamoyl)benzo[b]thiophen-5-yl)difluoromethyl)phosphonic acid] | – | > 0.3 µM | –
CC(C)(C)[C@H](NC(=O)c1cc2cc(C(F)(F)P(=O)(O)O)ccc2s1)C(=O)N1C[C@H](OCCCCCC(=O)N2Cc3cc4c(cc3C2)C(=O)N(C2CCC(=O)NC2=O)C4)C[C@H]1C(=O)N1CCO[C@H](c2ccccc2)C1 (stereo partly drawn) [Compound 592, ((2-(((2S)-1-((2S,4R)-4-((6-(6-(2,6-dioxopiperidin-3-yl)-5-oxo-3,5,6,7-tetrahydropyrrolo[3,4-f]isoindol-2(1H)-yl)-6-oxohexyl)oxy)-2-((R)-2-phenylmorpholine-4-carbonyl)pyrrolidin-1-yl)-3,3-dimethyl-1-oxobutan-2-yl)carbamoyl)benzo[b]thiophen-5-yl)difluoromethyl)phosphonic acid] | 1 to 10 µM | – | –
Cc1ncsc1-c1ccc([C@H](C)NC(=O)[C@@H]2C[C@@H](O)CN2C(=O)[C@@H](NC(=O)CCCCCCNC(=O)CC(=O)N2CCN(C(=O)[C@@H](NC(=O)c3cc4cc(C(F)(F)P(=O)(O)O)ccc4s3)C(C)(C)C)[C@H](C(=O)N3CCC[C@H](c4ccccc4)C3)C2)C(C)(C)C)cc1 [Compound 457, (difluoro(2-(((S)-1-((S)-4-(3-((7-(((S)-1-((2S,4R)-4-hydroxy-2-(((S)-1-(4-(4-methylthiazol-5-yl)phenyl)ethyl)carbamoyl)pyrrolidin-1-yl)-3,3-dimethyl-1-oxobutan-2-yl)amino)-7-oxoheptyl)amino)-3-oxopropanoyl)-2-((R)-3-phenylpiperidine-1-carbonyl)piperazin-1-yl)-3,3-dimethyl-1-oxobutan-2-yl)carbamoyl)benzo[b]thiophen-5-yl)methyl)phosphonic acid] | > 10 µM | – | > 10 µM
CC(C)(C)[C@H](NC(=O)c1cc2cc(C(F)(F)P(=O)(O)O)ccc2s1)C(=O)N1Cc2cc(OCC(=O)NCCCCCCCCCC#Cc3cccc4c3C(=O)N(C3CCC(=O)NC3=O)C4=O)ccc2C[C@H]1C(=O)N1CCO[C@H](c2ccccc2)C1 (stereo partly drawn) [Compound 547, ((2-(((2S)-1-((3S)-7-(2-((11-(2-(2,6-dioxopiperidin-3-yl)-1,3-dioxoisoindolin-4-yl)undec-10-yn-1-yl)amino)-2-oxoethoxy)-3-((R)-2-phenylmorpholine-4-carbonyl)-3,4-dihydroisoquinolin-2(1H)-yl)-3,3-dimethyl-1-oxobutan-2-yl)carbamoyl)benzo[b]thiophen-5-yl)difluoromethyl)phosphonic acid] | > 10 µM | – | –
CC(C)(C)[C@H](NC(=O)c1cc2cc(C(F)(F)P(=O)(O)O)ccc2s1)C(=O)N1CCN(C(=O)CC(=O)NCC#Cc2cccc3c2C(=O)N(C2CCC(=O)NC2=O)C3=O)C[C@H]1C(=O)N1CCO[C@H](c2ccccc2)C1 (stereo partly drawn) [Compound 507, ((2-(((2S)-1-((2S)-4-(3-((3-(2-(2,6-dioxopiperidin-3-yl)-1,3-dioxoisoindolin-4-yl)prop-2-yn-1-yl)amino)-3-oxopropanoyl)-2-((R)-2-phenylmorpholine-4-carbonyl)piperazin-1-yl)-3,3-dimethyl-1-oxobutan-2-yl)carbamoyl)benzo[b]thiophen-5-yl)difluoromethyl)phosphonic acid] | > 10 µM | – | –
CC(C)(C)[C@H](NC(=O)c1cc2cc(C(F)(F)P(=O)(O)O)ccc2s1)C(=O)N1C[C@@H](OCCCCCCCCCCC#Cc2cccc3c2CN(C2CCC(=O)NC2=O)C3=O)C[C@H]1C(=O)N1CCO[C@H](c2ccccc2)C1 (stereo partly drawn) [Compound 585, ((2-(((2S)-1-((2S,4S)-4-((12-(2-(2,6-dioxopiperidin-3-yl)-1-oxoisoindolin-4-yl)dodec-11-yn-1-yl)oxy)-2-((R)-2-phenylmorpholine-4-carbonyl)pyrrolidin-1-yl)-3,3-dimethyl-1-oxobutan-2-yl)carbamoyl)benzo[b]thiophen-5-yl)difluoromethyl)phosphonic acid] | – | > 0.3 µM | > 10 µM
CC(C)(C)[C@H](NC(=O)c1cc2cc(C(F)(F)P(=O)(O)O)ccc2s1)C(=O)N1C[C@@H](OCCCCCCCCCC#Cc2cccc3c2CN(C2CCC(=O)NC2=O)C3=O)C[C@H]1C(=O)N1CCO[C@H](c2ccccc2)C1 (stereo partly drawn) [Compound 584, ((2-(((2S)-1-((2S,4S)-4-((11-(2-(2,6-dioxopiperidin-3-yl)-1-oxoisoindolin-4-yl)undec-10-yn-1-yl)oxy)-2-((R)-2-phenylmorpholine-4-carbonyl)pyrrolidin-1-yl)-3,3-dimethyl-1-oxobutan-2-yl)carbamoyl)benzo[b]thiophen-5-yl)difluoromethyl)phosphonic acid] | 0.1 to 1 µM | – | > 10 µM
